These results are taken from patent US20240425966A1, “GAS-ASSISTED COCRYSTAL DE-SUBLIMATION” (THE REGENTS OF THE UNIVERSITY OF MICHIGAN, priority 2021, published 2024).

Bounds are passed on as bounds.

Data set [1] can be described thus: Thermogravimetric analysis (TGA), enthalpy of sublimation from Arrhenius plot of mass loss rate. Conditions: for Sublimation ΔHsub: 25-400° C., 10° C. per minute, slope of log mass loss rate versus 1000/T; for Sublimation Tlow: lower temperature of sublimation range; for Sublimation Thigh: upper temperature of sublimation range. Format: physicochemical. The method, then: (§1) To determine optimal process temperature, differential scanning calorimetry (DSC) and thermogravimetric analysis (TGA) were performed on the pure components, as well as on the cocrystal, shown in FIG. 2. A TA instruments DSC Q200 was used with a 40-400° C. heating range and 10° C. per minute heating rate. Only initial heating curves were collected and analyzed, without a cooling and secondary heating step. The initial melting peak temperature and enthalpy of melting values for each sample was determined using Universal Analysis software from TA instruments. A TA Instruments TGA Q500 was used with a 25-400° C. heating range and a 10° C. per minute heating rate. Powder was placed into a 5 mm diameter aluminum sample pan centered in a platinum hang pan. Enthalpies of sublimation were determined by plotting the logarithm of mass loss rate (−dm/dt) versus inverse temperature (1000/T).

The nature of data set [2]: Differential scanning calorimetry (DSC), enthalpy of melting. The format is physicochemical. Conditions: 40-400° C., 10° C. per minute, initial heating curve. How it is done:
as §1
(In DSC, transitions show as peaks or steps in heat flow.)

For data set [3] the following is noted: heating; reference (27); cited from earlier work.
A short description of data set [4]: Thermal stability (decomposition temperature). Conditions: heating. Format: physicochemical. The text has this:
Thermal analysis provides a good basis to determine the process window for successful cocrystal de-sublimation. The target temperature for the process is preferably in a region where sublimed API and conformer readily remain in the vapor phase. Too low, and the less volatile compound may de-sublimate within the heated tube, altering the ratio of API to conformer reaching a cooled surface (26). Moreover, decreasing temperature reduces sublimation rate and thus restricts the amount of material that can be processed. The upper temperature limit of the process is largely dictated by the thermal stability of each component. For example, CBZ may begin to decompose appreciably before reaching 180° C., limiting the heating temperature to well below its melting temperature. […] On the other hand, IND is stable up to 248° C., well above its melting temperature (27).

Consider `O=C(O)CCC(=O)O` [SUC, succinic acid], for which, in data set [1], the “Sublimation ΔHsub” value is 23.1 kcal/mol, the “Sublimation Tlow” value was 140 °C and the “Sublimation Thigh” value was 230 °C. Further, the “Melting ΔHmelt” value in data set [2] came to 7.89 kcal/mol.

Take `O=C1NS(=O)(=O)c2ccccc21` [SAC, saccharine]: in data set [1], the “Sublimation ΔHsub” value worked out at 25.57 kcal/mol, the “Sublimation Tlow” value amounted to 200 °C and the “Sublimation Thigh” value amounted to 290 °C. Moreover, the “Melting ΔHmelt” value in data set [2] was found to be 8.68 kcal/mol.

For `COc1ccc2c(c1)c(CC(=O)O)c(C)n2C(=O)c1ccc(Cl)cc1` [IND, indomethacin], in data set [1], the “Sublimation ΔHsub” value was 27.29 kcal/mol, the “Sublimation Tlow” value amounted to 200 °C and the “Sublimation Thigh” value was determined as 320 °C. The “stable up to (temperature)” value in data set [3] was 248 °C. Besides, the “Melting ΔHmelt” value in data set [2] came out at 8.01 kcal/mol.

For the molecule `NC(=O)N1c2ccccc2C=Cc2ccccc21` [CBZ, carbamazepine], in data set [1], the “Sublimation ΔHsub” value was 48.59 kcal/mol, the “Sublimation Tlow” value worked out at 220 °C and the “Sublimation Thigh” value came to 280 °C. In data set [4], the “temperature before which decomposition may begin appreciably” value is < 180 °C. Besides, the “Melting ΔHmelt” value in data set [2] was determined as 6.33 kcal/mol.
